According to US4410518A, “N-Phosphinoaminosulfinylcarbamate esters and their use as insecticides” (priority 1982, dated 1983):
Where two headings read alike, the source gives them in different places.

Legend:
[1] = test system: house flies, Musca domestica; assay: insecticidal activity against house flies (topical, 24 h mortality); format: in vivo; details: for LD50: Musca domestica, read-out: House flies LD50
Procedure: Representative carbamate esters of the invention were tested for insecticidal activity against house flies, Musca domestica. Stock 1% concentrated solutions of each of the test compounds were made in acetone, and such solutions diluted with acetone to a concentration of 0.001-0.1%. House flies were treated topically on the notum by 1 μl of each of the diluted acetone solutions and percent mortality was counted 24 hours after application. The insects were held at a constant temperature of 60° F. Results are given in μg/g.
(§1) In that table the term "LD50 " represents the dose needed to kill 50% of the test animals. In interpreting the values in Table 1 below, the lower the value for LD50 for house flies, the greater the insecticidal potency or toxicity of that particular compound. On the other hand, the higher the value of LD50 for mice, the lower the mammalian toxicity or the greater is the mammalian safety of such compound.

[2] = mammalian toxicity in mice (oral); details: mouse, in vivo, corn oil carrier, Swiss white mice
Procedure: Mammalian toxicity was determined against Swiss white mice. The test compound was applied orally using corn oil as the carrier. Results are given as LD50 in mg of compound per kg body weight.
as §1

[3] = test system: house flies, Musca domestica; details: 'is known to have', no unit printed beside the value; cited from earlier work
[4] = topical on the notum, 1 μl acetone solution, 24 hours after application

Compound | LD50 [1, 4] [mg/kg] | LD50 [2] [mg/kg] | also measured
CCOP(=S)(OCC)N(C1CCCC1)[S+]([O-])N(C)C(=O)ON=C(C)SC (centres unmarked) [Example 16, methyl N-[[[[[(diethoxyphosphinothioyl)cyclopentylamino]sulfinyl]methylamino]carbonyl]oxy]ethanimidothioate] | 12 |  | 
CCOP(=S)(OCC)N(CC)[S+]([O-])N(C)C(=O)ON=C(C)SC (centres unmarked) [Example 12, methyl N-[[[[[(diethoxyphosphinothioyl)ethylamino]sulfinyl]methylamino]carbonyl]oxy]ethanimidothioate] | 13 |  | 
CCCN([S+]([O-])N(C)C(=O)ON=C(C)SC)P(=S)(OCC)OCC (centres unmarked) [Example 13, methyl N-[[[[[(diethoxyphosphinothioyl)propylamino]sulfinyl]methylamino]carbonyl]oxy]ethanimidothioate] | 8 | 120 | 
CCOP(=S)(OCC)N(C(C)CC)[S+]([O-])N(C)C(=O)ON=C(C)SC (centres unmarked) [Example 15, methyl N-[[[[[(diethoxyphosphinothioyl)sec-butylamino]sulfinyl]methylamino]carbonyl]oxy]ethanimidothioate] | 10 |  | 
CCCCCCN([S+]([O-])N(C)C(=O)Oc1cccc2c1OC(C)(C)C2)P1(=S)OCC(C)(C)CO1 (centres unmarked) [Example 6, 2,3-dihydro-2,2-dimethyl-7-benzofuranyl[[(5,5-dimethyl-2-thioxo-1,3,2-dioxaphosphorinan-2-yl)hexylamino]sulfinyl]methylcarbamate] |  | 105 | 
CSC(=NOC(=O)N(C)[S+]([O-])N(C)P1(=S)OCC(C)(C)CO1)C(=O)N(C)C (centres unmarked) [Example 25, methyl 2-(dimethylamino)-N-[[[[[(5,5-dimethyl-2-thioxo-1,3,2-dioxaphosphorinan-2-yl)(methyl)amino]sulfinyl]methylamino]carbonyl]oxy]-2-oxoethanimidothioate] | 150 | 25 | 
CCCN([S+]([O-])N(C)C(=O)Oc1cccc2c1OC(C)(C)C2)P(=O)(OCC)OCC (centres unmarked) [Example 8, 2,3-dihydro-2,2-dimethyl-7-benzofuranyl[[(diethoxyphosphinyl)propylamino]sulfinyl]methylcarbamate] |  | 100 | 
CCOP(=S)(OCC)N(C)[S+]([O-])N(C)C(=O)ON=C(SC)C(=O)N(C)C (centres unmarked) [Example 21, methyl 2-(dimethylamino)-N-[[[[[(diethoxyphosphinothioyl)methylamino]sulfinyl]methylamino]carbonyl]oxy]-2-oxoethanimidothioate] | 15 | 23 | 
CCOP(=S)(OCC)N(C(C)C)[S+]([O-])N(C)C(=O)ON=C(C)SC (centres unmarked) [Example 14, methyl N-[[[[[(diethoxyphosphinothioyl)isopropylamino]sulfinyl]methylamino]carbonyl]oxy]ethanimidothioate] | 11 |  | 
COP(=S)(OC)N(C)[S+]([O-])N(C)C(=O)ON=C(C)SC (centres unmarked) [Example 9, methyl N-[[[[[(dimethoxyphosphinothioyl)methylamino]sulfinyl]methylamino]carbonyl]oxy]ethanimidothioate] | 24 | 120 | 
CCCCCCCCCCCCN([S+]([O-])N(C)C(=O)Oc1cccc2c1OC(C)(C)C2)P(=S)(OCC)OCC (centres unmarked) [Example 4, 2,3-dihydro-2,2-dimethyl-7-benzofuranyl[[(diethoxyphosphinothioyl)dodecylamino]sulfinyl]methylcarbamate] |  | > 1000 | 
CCOP(=S)(OCC)N(C1CCCCC1)[S+]([O-])N(C)C(=O)ON=C(C)SC (centres unmarked) [Example 18, methyl N-[[[[[(diethoxyphosphinothioyl)cyclohexylamino]sulfinyl]methylamino]carbonyl]oxy]ethanimidothioate] | 18 |  | 
CCN([S+]([O-])N(C)C(=O)ON=C(C)SC)P1(=S)OCC(C)(C)CO1 (centres unmarked) [Example 20, methyl N-[[[[[(5,5-dimethyl-2-thioxo-1,3,2-dioxaphosphorinan-2-yl)(ethyl)amino]sulfinyl]methylamino]carbonyl]oxy]ethanimidothioate] | 120 |  | 
CCOP(=S)(OCC)N(C)[S+]([O-])N(C)C(=O)Oc1cccc2c1OC(C)(C)C2 (centres unmarked) [Example 1, 2,3-dihydro-2,2-dimethyl-7-benzofuranyl[[(diethoxyphosphinothioyl)methylamino]sulfinyl]methylcarbamate] | 14 | 65 | 
CCCCCCN([S+]([O-])N(C)C(=O)Oc1cccc2c1OC(C)(C)C2)P(=S)(OCC)OCC (centres unmarked) [Example 3, 2,3-dihydro-2,2-dimethyl-7-benzofuranyl[[(diethoxyphosphinothioyl)hexylamino]sulfinyl]methylcarbamate] |  | 140 | House flies LD50 [1, 4]: 19 µg/g
CCOP(=S)(OCC)N(C(C)C)[S+]([O-])N(C)C(=O)ON=C(SC)C(=O)N(C)C (centres unmarked) [Example 23, methyl 2-(dimethylamino)-N-[[[[[(diethoxyphosphinothioyl)isopropylamino]sulfinyl]methylamino]carbonyl]oxy]-2-oxoethanimidothioate] | 10 | 22 | 
CCN([S+]([O-])N(C)C(=O)ON=C(C)SC)P(=S)(OC)OC (centres unmarked) [Example 10, methyl N-[[[[[(dimethoxyphosphinothioyl)ethylamino]sulfinyl]methylamino]carbonyl]oxy]ethanimidothioate] | 14 |  | 
CCOP(=S)(OCC)N(C1CCCC1)[S+]([O-])N(C)C(=O)ON=C(SC)C(=O)N(C)C (centres unmarked) [Example 24, Methyl 2-(dimethylamino)-N-[[[[[(diethoxyphosphinothioyl)cyclopentylamino]sulfinyl]methylamino]carbonyl]oxy]-2-oxoethanimidothioate] | 16 |  | 
CCOP(=S)(OCC)N(CC)[S+]([O-])N(C)C(=O)ON=C(SC)C(=O)N(C)C (centres unmarked) [Example 22, methyl 2-(dimethylamino)-N-[[[[[(diethoxyphosphinothioyl)ethylamino]sulfinyl]methylamino]carbonyl]oxy]-2-oxoethanimidothioate] | 18 |  | 
CCOP(=S)(OCC)N(C)[S+]([O-])N(C)C(=O)ON=C(C)SC (centres unmarked) [Example 11, methyl N-[[[[[(diethoxyphosphinothioyl)methylamino]sulfinyl]methylamino]carbonyl]oxy]ethanimidothioate] | 12 | 130 | 
CCCCCCN([S+]([O-])N(C)C(=O)ON=C(C)SC)P(=S)(OCC)OCC (centres unmarked) [Example 17, Methyl N-[[[[[(diethoxyphosphinothioyl)hexylamino]sulfinyl]methylamino]carbonyl]oxy]ethanimidothioate] | 23 | 250 | 
CCOP(=O)(OCC)N(C)[S+]([O-])N(C)C(=O)Oc1cccc2c1OC(C)(C)C2 (centres unmarked) [Example 7, 2,3-dihydro-2,2-dimethyl-7-benzofuranyl[[(diethoxyphosphinyl)methylamino]sulfinyl]methylcarbamate] |  |  | LD50 ([1]; topical, 24 h): 19 mg/kg
CCCN([S+]([O-])N(C)C(=O)Oc1cccc2c1OC(C)(C)C2)P(=S)(OCC)OCC (centres unmarked) [Example 2, 2,3-dihydro-2,2-dimethyl-7-benzofuranyl[[(diethoxyphosphinothioyl)propylamino]sulfinyl]methylcarbamate] | 16 | 60 | 
CN(C(=O)Oc1cccc2c1OC(C)(C)C2)[S+]([O-])N(C)P1(=S)OCC(C)(C)CO1 (centres unmarked) [Example 5, 2,3-Dihydro-2,2-dimethyl-7-benzofuranyl[[(5,5-dimethyl-2-thioxo-1,3,2-dioxaphosphorinan-2-yl)methylamino]sulfinyl]methylcarbamate] | 3 | 70 | 
CSC(C)=NOC(=O)N(C)[S+]([O-])N(C)P1(=S)OCC(C)(C)CO1 (centres unmarked) [Example 19, methyl N-[[[[[(5,5-dimethyl-2-thioxo-1,3,2-dioxaphosphorinan-2-yl)(methyl)amino]sulfinyl]methylamino]carbonyl]oxy]ethanimidothioate] | 58 | 200 | 
CNC(=O)Oc1cccc2c1OC(C)(C)C2 [carbofuran, 2,3-dihydro-2,2-dimethyl-7-benzofuranyl methylcarbamate] |  |  | LD50 for house flies (carbofuran, known) [3]: about 6.5
